# Results taken from patent publication US20240293401A1, “COMBINATION THERAPY WITH AN LXR AGONIST AND AN INHIBITOR COMPOUND” (Asteroid Therapeutics, priority 2023, published 2024).
# How the values were obtained:
# [1] = Mouse study: liver triglycerides after 5 days of daily dosing; type: in vivo, mice; conditions: for Average liver trig: daily for 5 days, 4 hours post dose on day 5
# Experimental: (§1) Mice were dosed daily with either: • a. the LXR agonist GW3965 orally at specified concentrations for 5-days, • b. the LXR inverse agonist SR9238 intraperitoneally at specified concentrations for 5-days, or • c. both drugs simultaneously at specified concentrations for 5-days.
# (§2) Four hours after the final treatment on day 5, mice were euthanized and tissues were collected.
# β-cells = conditions: cited from earlier work
# Abca1 = assay: Mouse study: expression of the LXR target gene Abca1 in the brain after 5 days of daily dosing; type: in vivo, mice; conditions: for Average ABCA1 FC vs. vehicle (brain): daily for 5 days, 4 hours post dose on day 5
# Experimental: as §1, §2
# [2] = system: glioblastoma, prostate cancer, and breast cancer cells; conditions: cited from earlier work
# [3] = SR9238 30 mg/kg intraperitoneally
# [4] = SR9238 60 mg/kg intraperitoneally
structure (smiles),measurement,setting,value
O=C(O)Cc1cccc(OCCCN(Cc2cccc(C(F)(F)F)c2Cl)CC(c2ccccc2)c2ccccc2)c1 [GW-3965],Average liver trig,[1]; GW-3965 15 mg/kg orally,16.3 mg/g
same,Average liver trig,[1]; GW-3965 30 mg/kg orally,18.4 mg/g
same,Average liver trig,[1]; GW-3965 60 mg/kg orally,29.2 mg/g
same,liver triglyceride concentrations (in words),"[1]; GW-3965 alone, 5 days of daily treatment",increased liver triglyceride concentrations
same,effect on β-cells (in words),β-cells,interfere with mitochondrial metabolism and metabolism-independent processes in β-cells
same,Average ABCA1 FC vs. vehicle (brain),Abca1; GW-3965 15 mg/kg orally,1.6
same,Average ABCA1 FC vs. vehicle (brain),Abca1; GW-3965 30 mg/kg orally,2.0
same,Average ABCA1 FC vs. vehicle (brain),Abca1; GW-3965 60 mg/kg orally,2.8
same,expression of the LXR target gene Abca1 (in words),"Abca1; GW-3965 alone, 5 days of daily treatment, brains of mice",increased expression
CC(C)[C@@H](O)CC[C@@H](C)[C@H]1CC[C@H]2[C@@H]3CC=C4C[C@@H](O)CC[C@]4(C)[C@H]3CC[C@]12C [24(S)-hydroxycholesterol],"proliferation of glioblastoma, prostate cancer, and breast cancer cells (in words)",[2],suppress the proliferation
CCOC(=O)c1ccc(CN(Cc2ccc(-c3cccc(S(C)(=O)=O)c3)cc2)S(=O)(=O)c2c(C)cc(C)cc2C)o1 [SR9238],Average liver trig,[1]; [3],7.78 mg/g
same,Average liver trig,[1]; [4],8.4 mg/g
same,Average ABCA1 FC vs. vehicle (brain),Abca1; [3],0.9
same,Average ABCA1 FC vs. vehicle (brain),Abca1; [4],1.2
O=S(=O)(c1ccccc1)N(CC(F)(F)F)c1ccc(C(O)(C(F)(F)F)C(F)(F)F)cc1 [T0901317],effect on β-cells (in words),β-cells,interfere with mitochondrial metabolism and metabolism-independent processes in β-cells
CC(C)CC[C@@H](O)[C@@H](C)[C@H]1CC[C@H]2[C@@H]3CC=C4C[C@@H](O)CC[C@]4(C)[C@H]3CC[C@]12C [22(R)-hydroxycholesterol],"proliferation of glioblastoma, prostate cancer, and breast cancer cells (in words)",[2],suppress the proliferation
